Assay results as given in patent publication US20100129347A1, “HERPES VIRUS INFECTION INHIBITOR, METHOD FOR INHIBITING INFECTION WITH HERPES VIRUS, AND USE THEREOF” (Osaka University, priority 2007, published 2010).

Tested on: HSV-1
Experiment: HSV-1-GFP infection of human PILR-transfected CHO-K1 cells with acyclovir as control (Example 3), GFP expression 18 hours later
Assay type: cell-based
Details: acyclovir 100 μM or 500 μM, or mAb 10 μg/ml, added 30 minutes before virus; FIG. 10
Procedure: HSV-1-GFP of 1.5×10^6 PFU was added to 5×10^4 CHO-K1 cells to which human PILR had been transfected, and expression of GFP was analyzed 18 hours later.
30 minutes before adding the virus, 100 μM or 500 μM of acyclovir, or 10 μg/ml of anti-human PILR mAb (M4) was added, and a ratio of infection with the virus was shown in FIG. 10 with a ratio of infection of cells to which nothing had been added (“control” in FIG. 10) being 100%.

Nc1nc2c(ncn2COCCO)c(=O)[nH]1 [acyclovir]
inhibition of infection with HSV (ratio of infection, control = 100%): did not inhibit infection
